In test [1] the target is 3-phosphoinositide-dependent protein kinase 1 (Homo sapiens) (UniProt O15530). Put plainly: Inhibition of PDK1.
Test [2] has as its target Tyrosine-protein kinase SYK (Homo sapiens) (UniProt P43405). Put plainly: Inhibition of SYK.

`CC(C)c1n[nH]c(Cl)c1-c1ccnc(Nc2ccc(N3CCC(N(C)C)CC3)cn2)n1` [4-(5-Chloro-3-isopropyl-1H-pyrazol-4-yl)-N-(5-(4-(dimethylamino)piperidin-1-yl)pyridin-2-yl)pyrimidin-2-amine]: the IC50 in test [1] and in test [2] was over 10 µM throughout.

For the molecule `CC(C)c1[nH]nc(C(F)(F)F)c1-c1ccnc(Nc2ccc(N3CCC(N(C)C)CC3)cn2)n1` [N*6'*-[4-(5-Isopropyl-3-trifluoromethyl-1H-pyrazol-4-yl)-pyrimidin-2-yl]-N*4*,N*4*-dimethyl-3,4,5,6-tetrahydro-2H-[1,3']-bipyridinyl-4,6'-diamine], the IC50 in test [1] and in test [2] was over 10 µM throughout.
